Assay results: patent publication US20060241098A1, “Pesticidal n-substituted azacyclic derivatives” (priority 2003, published 2006)
Where two headings read alike, the source gives them in different places.

How the values were obtained:
[1] = system: cotton aphid (Aphis gossypii); assay: Translaminar insecticidal activity test on cotton leaves, N-oxides versus free amines; type: in vivo; settings: for mortality at 500 ppm: Aphis gossypii
Method: Certain N-Substituted azacyclic compounds where the N-substituent is O^− (the N-oxides) of the present invention were tested to determine their translaminar characteristics as evidenced by activity against cotton aphid (Aphis gossypii) in comparison with their corresponding free amine derivatives. These tests were conducted in the following manner: For each compound tested, one cotton plant with two mature leaves was selected. On the top of one of the leaves a sticky material used for trapping insects was applied using a stamp of about 2.5 centimeters in diameter. The process was repeated on the bottom of the second leaf of the cotton plant. A solution of 500 ppm of test compound (dissolved in 1:1 acetone and water containing a small amount of surfactant) was then applied to the entire side of each leaf opposite the side stamped with the sticky material using a saturated cotton swab. Upon completion of the application of the test compounds, the cotton plants were maintained in a growth chamber for about 18 hours. After this time the leaves of the test plant were infested with a known number of cotton aphids by placing an infested leaf cutting from the cotton aphid colony directly over the sticky material on each leaf. The leaf cutting on the bottom of a leaf of the test plant was secured to the leaf with a pin. The treated and infested cotton plants were then maintained in a chamber, during which time they were evaluated at daily intervals of from one to up to eight days. A test compound was termed active (A) if the top and bottom of the leaves of the test plant were mostly free of aphids (80% to 100%) when compared to untreated controls. […]

[2] = system: cotton aphid; assay: Residual insecticidal activity test on sprayed cotton plants; type: in vivo, Aphis gossypii; settings: 72 h exposure; for mortality at 224 g/ha / mortality at 560 g/ha / mortality at 1120 g/ha: Aphis gossypii; for Percent Mortality 5 DAT (greenhouse): 5 day residual
Method: Certain N-Substituted azacyclic compounds where the N-substituent is O^− (the N-oxides) of the present invention were also tested to determine their residual insecticidal activity. These tests were conducted in the following manner:
For each rate of application of test compound, a 15 mL aliquot of test solution was prepared. Sufficient test compound was dissolved in 1.5 mL of acetone to provide an application rate as high as 1200 grams/Ha. Each solution was then added to 13.5 mL of water containing 300 ppm of a surfactant. There were four replicates for each rate of application of test compound, and all tests included a known chemical standard as well as a standard of water and untreated checks.
A maximum of 14 appropriately sized cotton plants for each rate of application and replicate were arranged in a 28 pot plastic flat and sprayed with the 15 mL sample of test compound using an traveling boom sprayer equipped with a cone spray tip at a rate of 30 gallons/acre under a pressure of 40-44 psi. The untreated checks were sprayed first, followed by the test compounds and standards, all in order of lowest to highest rates of application. Once the spraying was complete, the test plants were allowed to air-dry on the conveyor on which they were sprayed.
In the test to determine residual activity (0 Day Residual) one set of dry plants was infested with leaf cuttings covered with about 25 cotton aphids taken from cotton plants in an aphid colony. The cotton plants were then maintained in a greenhouse or in an atmosphere of simulated direct sunlight for 72 hours after which time cotton aphid mortality was determined.
A second set of dry test plants treated with test compounds were maintained for three days (3 Day Residual), then infested with cotton aphid. The infested plants were maintained and evaluated for cotton aphid mortality after 72 hours as set forth above. Other residual activity periods are optionally evaluated also, for example a 5 day residual.
At the end of the 72 hour exposure period the numbers of live insects were counted a percent mortality of aphids was calculated based on the number of live insects present and the number that were infested onto the plants.

[3] = 24 h, read-out: Percent Mortality at Day After treatment (DAT), 1 DAT
[4] = 72 h, read-out: Percent Mortality at Day After treatment (DAT), 3 DAT
[5] = 96 h, read-out: Percent Mortality at Day After treatment (DAT), 4 DAT
[6] = 120 h, read-out: Percent Mortality at Day After treatment (DAT), 5 DAT
[7] = 144 h, read-out: Percent Mortality at Day After treatment (DAT), 6 DAT
[8] = 168 h, read-out: Percent Mortality at Day After treatment (DAT), 7 DAT
[9] = Table 4, 56 g/ha, 3 day residual, simulated sunlight environment
[10] = Table 4, 56 g/ha, greenhouse environment
[11] = Table 4, 56 g/ha, infested 0 days after treatment
[12] = Table 4, 112 g/ha, 3 day residual, simulated sunlight environment
[13] = Table 4, 112 g/ha, greenhouse environment
[14] = Table 4, 112 g/ha, infested 0 days after treatment
[15] = Table 4, 224 g/ha, 3 day residual, simulated sunlight environment
[16] = Table 4, 224 g/ha, greenhouse environment
[17] = Table 4, 224 g/ha, infested 0 days after treatment
[18] = 500 ppm applied to opposite leaf side, 2 DAT
[19] = 500 ppm applied to opposite leaf side, 3 DAT
[20] = 500 ppm applied to opposite leaf side
[21] = 500 ppm applied to opposite leaf side, 6 DAT
[22] = 500 ppm applied to opposite leaf side, 1 DAT

Cc1nnn(C2C[N+]3([O-])CCC2CC3)n1 (stereo not shown) [Compound 407, N-Oxide of 5-methyl-2-quinuclidin-3-yl-1,2,3,4-tetraazole]
mortality at 500 ppm [1, 3]: < 50%
mortality at 500 ppm [1, 4]: 50 to 80%
mortality at 500 ppm [1, 5]: 50 to 80%
mortality at 500 ppm [1, 6]: 50 to 80%
mortality at 500 ppm [1, 7]: 50 to 80%

Cc1noc(C2CN3CCC2C3)n1 (stereo not shown) [Compound B, 5-(4-azabicyclo[2.2.1]hept-2-yl)-3-methyl-1,2,4-oxadiazole, reference compound]
mortality at 224 g/ha ([2]; Table 3, 224 g/ha, 3 day residual, greenhouse environment, read-out: Percent Mortality 3 DAT (greenhouse)): 41%
mortality at 224 g/ha ([2]; Table 3, 224 g/ha, 3 day residual, simulated sunlight environment, read-out: Percent Mortality 3 DAT (simulated sunlight)): 21%
mortality at 224 g/ha ([2]; Table 3, 224 g/ha, infested 0 days after treatment, read-out: Percent Mortality 0 DAT): 100%
mortality at 560 g/ha ([2]; Table 3, 560 g/ha, 3 day residual, greenhouse environment, read-out: Percent Mortality 3 DAT (greenhouse)): 84%
mortality at 560 g/ha ([2]; Table 3, 560 g/ha, 3 day residual, simulated sunlight environment, read-out: Percent Mortality 3 DAT (simulated sunlight)): 49%
mortality at 560 g/ha ([2]; Table 3, 560 g/ha, infested 0 days after treatment, read-out: Percent Mortality 0 DAT): 100%
mortality at 1120 g/ha ([2]; Table 3, 1120 g/ha, 3 day residual, greenhouse environment, read-out: Percent Mortality 3 DAT (greenhouse)): 99%
mortality at 1120 g/ha ([2]; Table 3, 1120 g/ha, 3 day residual, simulated sunlight environment, read-out: Percent Mortality 3 DAT (simulated sunlight)): 95%
mortality at 1120 g/ha ([2]; Table 3, 1120 g/ha, infested 0 days after treatment, read-out: Percent Mortality 0 DAT): 100%
mortality at 500 ppm [1, 3]: < 50%
mortality at 500 ppm ([1]; 48 h, read-out: Percent Mortality at Day After treatment (DAT), 2 DAT): < 50%
mortality at 500 ppm [1, 4]: < 50%
mortality at 500 ppm [1, 7]: < 50%
mortality at 500 ppm [1, 8]: < 50%
mortality at 500 ppm ([1]; 168 h, read-out: mortality throughout the seven-day test period): < 50%

Cc1noc(C2C[N+]3([O-])CCC2C3)n1 (stereo not shown) [Compound 396, N-Oxide of 5-(4-azabicyclo[2.2.1]hept-2-yl)-3-methyl-1,2,4-oxadiazole]
Percent Mortality 3 DAT (greenhouse) ([2]; Table 3, 224 g/ha, 3 day residual, greenhouse environment): 98%
Percent Mortality 3 DAT (simulated sunlight) ([2]; Table 3, 224 g/ha, 3 day residual, simulated sunlight environment): 99%
Percent Mortality 0 DAT ([2]; Table 3, 224 g/ha, infested 0 days after treatment): 100%
Percent Mortality 3 DAT (greenhouse) ([2]; Table 3, 560 g/ha, 3 day residual, greenhouse environment): 100%
Percent Mortality 3 DAT (simulated sunlight) ([2]; Table 3, 560 g/ha, 3 day residual, simulated sunlight environment): 100%
Percent Mortality 0 DAT ([2]; Table 3, 560 g/ha, infested 0 days after treatment): 100%
Percent Mortality 3 DAT (greenhouse) ([2]; Table 3, 1120 g/ha, 3 day residual, greenhouse environment): 100%
Percent Mortality 3 DAT (simulated sunlight) ([2]; Table 3, 1120 g/ha, 3 day residual, simulated sunlight environment): 100%
Percent Mortality 0 DAT ([2]; Table 3, 1120 g/ha, infested 0 days after treatment): 100%
Percent Mortality 3 DAT (simulated sunlight) [2, 9]: 58%
Percent Mortality 5 DAT (greenhouse) [2, 10]: 64%
Percent Mortality 0 DAT [2, 11]: 100%
Percent Mortality 3 DAT (simulated sunlight) [2, 12]: 70%
Percent Mortality 5 DAT (greenhouse) [2, 13]: 86%
Percent Mortality 0 DAT [2, 14]: 100%
Percent Mortality 3 DAT (simulated sunlight) [2, 15]: 98%
Percent Mortality 5 DAT (greenhouse) [2, 16]: 93%
Percent Mortality 0 DAT [2, 17]: 100%
Percent Mortality at Day After treatment (DAT), 2 DAT [1, 18]: A (A is 80%-100% mortality when compared to the control)
Percent Mortality at Day After treatment (DAT), 3 DAT [1, 19]: A (A is 80%-100% mortality when compared to the control)
Percent Mortality at Day After treatment (DAT), 5 DAT [1, 20]: A (A is 80%-100% mortality when compared to the control)
Percent Mortality at Day After treatment (DAT), 6 DAT [1, 21]: A (A is 80%-100% mortality when compared to the control)
mortality throughout the seven-day test period ([1]; 500 ppm, whole 7-day period): 100%

CCc1noc(C2C[N+]3([O-])CCC2C3)n1 (stereo not shown) [Compound 397, N-Oxide of 5-(4-azabicyclo[2.2.1]hept-2-yl)-3-ethyl-1,2,4-oxadiazole]
Percent Mortality at Day After treatment (DAT), 1 DAT [1, 22]: SA (SA is 50%-80% mortality when compared to the control)
Percent Mortality at Day After treatment (DAT), 3 DAT [1, 19]: SA (SA is 50%-80% mortality when compared to the control)
Percent Mortality at Day After treatment (DAT), 4 DAT ([1]; 500 ppm applied to opposite leaf side, 4 DAT): SA (SA is 50%-80% mortality when compared to the control)
Percent Mortality at Day After treatment (DAT), 5 DAT [1, 20]: SA (SA is 50%-80% mortality when compared to the control)
Percent Mortality at Day After treatment (DAT), 6 DAT [1, 21]: SA (SA is 50%-80% mortality when compared to the control)

Cc1nnn(C2CN3CCC2CC3)n1 (stereo not shown) [E, 5-methyl-2-quinuclidin-3-yl-1,2,3,4-tetraazole]
mortality at 500 ppm [1, 3]: < 50%
mortality at 500 ppm [1, 4]: < 50%
mortality at 500 ppm [1, 5]: < 50%
mortality at 500 ppm [1, 6]: < 50%
mortality at 500 ppm [1, 7]: < 50%

Cc1nnn([C@H]2CN3CC[C@H]2C3)n1 [D, 2-(4-azabicyclo[2.2.1]heptyl-2-yl)-5-methyl-1,2,3,4-tetrazole]
mortality at 500 ppm [1, 7]: 50 to 80%
mortality at 500 ppm [1, 8]: 50 to 80%

Cc1nnn(C2C[N+]3([O-])CCC2C3)n1 (stereo not shown) [Compound 402, N-Oxide of 2-(4-azabicyclo[2.2.1]heptyl-2-yl)-5-methyl-1,2,3,4-tetrazole]
Percent Mortality 3 DAT (simulated sunlight) [2, 9]: 50%
Percent Mortality 5 DAT (greenhouse) [2, 10]: 45%
Percent Mortality 0 DAT [2, 11]: 50%
Percent Mortality 3 DAT (simulated sunlight) [2, 12]: 84%
Percent Mortality 5 DAT (greenhouse) [2, 13]: 70%
Percent Mortality 0 DAT [2, 14]: 84%
Percent Mortality 3 DAT (simulated sunlight) [2, 15]: 92%
Percent Mortality 5 DAT (greenhouse) [2, 16]: 84%
Percent Mortality 0 DAT [2, 17]: 92%
Percent Mortality at Day After treatment (DAT), 1 DAT [1, 22]: A (A is 80%-100% mortality when compared to the control)
Percent Mortality at Day After treatment (DAT), 2 DAT [1, 18]: A (A is 80%-100% mortality when compared to the control)
Percent Mortality at Day After treatment (DAT), 3 DAT [1, 19]: A (A is 80%-100% mortality when compared to the control)
Percent Mortality at Day After treatment (DAT), 6 DAT [1, 21]: A (A is 80%-100% mortality when compared to the control)
Percent Mortality at Day After treatment (DAT), 7 DAT ([1]; 500 ppm applied to opposite leaf side, 7 DAT): A (A is 80%-100% mortality when compared to the control)

CCc1noc(C2CN3CCC2C3)n1 (stereo not shown) [C, 5-(4-azabicyclo[2.2.1]hept-2-yl)-3-ethyl-1,2,4-oxadiazole]
mortality at 500 ppm [1, 3]: < 50%
mortality at 500 ppm [1, 4]: < 50%
mortality at 500 ppm [1, 5]: < 50%
mortality at 500 ppm [1, 6]: < 50%
mortality at 500 ppm [1, 7]: < 50%

CN1CCC=C(c2cnsn2)C1 [A, 3-[1-methyl(1,2,5,6-tetrahydropyrid-3-yl)]-1,2,5-thiadiazole]
mortality at 500 ppm ([1]; 24 h, 500 ppm applied to opposite leaf side, 1 DAT, read-out: Percent Mortality at Day After treatment (DAT), 1 DAT): < 50%
mortality at 500 ppm ([1]; 48 h, 500 ppm applied to opposite leaf side, 2 DAT, read-out: Percent Mortality at Day After treatment (DAT), 2 DAT): < 50%
mortality at 500 ppm ([1]; 72 h, 500 ppm applied to opposite leaf side, 3 DAT, read-out: Percent Mortality at Day After treatment (DAT), 3 DAT): < 50%
mortality at 500 ppm ([1]; 96 h, 500 ppm applied to opposite leaf side, 4 DAT, read-out: Percent Mortality at Day After treatment (DAT), 4 DAT): < 50%
mortality at 500 ppm ([1]; 144 h, 500 ppm applied to opposite leaf side, 6 DAT, read-out: Percent Mortality at Day After treatment (DAT), 6 DAT): < 50%
